Values of other authors in patent publication US8263638B2, “Dosing regimens for ion channel modulating compounds” (priority 2004, dated 2012).
Read-outs that look alike come from different tables or passages of the source.

Test system: rabbit Purkinje fibers
Details: cited from earlier work

| SMILES | increase of APD90 (10 μM, rabbit) | increase of APD90 (10 nM, rabbit Purkinje fibers, BCL=1000 ms) |
| --- | --- | --- |
| C=C[C@H]1C[N@@]2CC[C@H]1C[C@@H]2[C@@H](O)c1ccnc2ccc(OC)cc12 [quinidine] | 93% | – |
| CN(CCOc1ccc(NS(C)(=O)=O)cc1)CCc1ccc(NS(C)(=O)=O)cc1 [dofetilide] | – | 83% |
